We go through 1 compound from US11000568B2, “Means and methods for treating copper-related diseases” (HELMHOLTZ ZENTRUM MÜNCHEN—DEUTSCHES FORSCHUNGSZENTRUM FÜR …, priority 2015, dated 2021).

Like-named read-outs stand apart in the source and are kept apart here. Numbered stars: 1 amine (or outer) side, 2 acyl side, 3 side chain; on linkers, the order of the positions; unused ones are H or OH. Bridge positions count the residues as written; N and C are the ends. Square brackets hold non-standard residues; d marks the D form. Peptide text beside a SMILES is read from it. * marks the point of attachment. X2 = O=C1OC(C2CCCN2[*:1])=NC1C(=S)NC(CO)C(=O)[*:2]; X1 = CC(C)CC(=O)C1=NC(C(=S)NCC(=O)*)C(=O)O1

This data set is described as follows: MB in serum after i.p. injection. In kind it is in vivo, rat. On the procedure:
LPP rats were treated with MB either by daily i.p. injections for 3 or 5 consecutive days, or twice daily i.p. injections for 8 consecutive days at a dose of 150 mg/kg bw or 4 days via the drinking water with D-PA at a dose of 100 mg/kg bw/d or TETA at 480 mg/kg bw/d, respectively (Togashi et al., Hepatology 15, 82-87 (1992)). Based on a mean copper content of 250 μg/g w.w. in Atp7b−/− rat livers at the age of treatment start (Zischka et al., log. cit.), a LPP−/− rat liver of 8 g w.w. contains around 31.5 μmol copper. Single MB doses were chosen equimolar to this copper amount. […] Assuming 40 ml water intake per day for a rat weighing 250 g this translates to a dose of 480 mg/kg bw/d. With respect to the mean liver copper content in LPP−/− rats aged 85 days, the molar ratios of the chelators applied was MB 1:D-PA 4.3:TETA 17.4, respectively. […]
Competitive ELISA. […] After 10 min, the plates were washed, bound antibodies against MB were detected with HRP conjugated mAbs against the rat IgG isotypes and HRP was visualized with TMB. MAbs that recognized free MB (no signal when pre-incubated with MB, positive signal in the buffer control) were further analyzed in a serial dilution of MB (1000 ng/ml to 2 ng/ml). […]

With `CSCCC(NC(=O)C1CSSCC(NC(=O)C(CO)NC(=O)CNC(=S)C2N=C(C(=O)CC(C)C)OC2=O)C(=O)NC(Cc2ccc(O)cc2)C(=O)N2CCCC2C2=NC(C(=O)O2)C(=S)NC(CO)C(=O)N1)C(=O)O` (centres unmarked) [MB] (X1-SCY[X2]CM-OH; disulfide 2-5; configuration not given here), the “time MB detectable in the serum” value is 30 min. Also, under “n=2”, the “time MB detectable in the serum” value is given as “half an hour”.
